Laboratory results: patent US20250186409A1, “5-AMINOHEXAHYDRO-6,7,8-TRIHYDROXY-3H-OXAZOLO[3,4-A]PYRIDIN-3-ONE DERIVATIVES DERIVATIVES AS TLR4 MODULATORS FOR THE TREATMENT OF IMMUNE DISEASES” (CONSEJO SUPERIOR DE INVESTIGACIONES CIENTÍFICAS (CSIC), priority 2021, published 2025)
Entries after “also recorded” stand apart in the source; their conditions may differ.

Legend:
[1] = test system: glycosidases (human fibroblast lysates); test: Stability of the glycosidic linkage to glycosidases on incubation with human fibroblast lysates; assay type: in vitro ADME; settings: 4 h, 37° C., pH 4.5, compound solution 200 μM, gas chromatography
Procedure: The stability of the glyosidic linkage in compounds 2, 4, 6, 8, 10, 12, 14, 16, 18, 20, 22, 25, 27, 29, 32 and 34 selected as representative examples, upon incubation with human fibroblast lysates for 4 h was checked. For such purpose, cells were scraped into ice-cold H2O (10^6 cells mL^−1) and lysed by sonication. Insoluble materials were removed by centrifugation at 15,000 rpm for 5 min and protein concentrations were determined with Protein Assay Rapid Kit (WAKO, Tokyo, Japan). 10 μL of the lysates in 0.1% Triton X-100 in distilled water were incubated at 37° C. with 20 μL of the compound solution (200 μM) in 0.1 M citrate buffer, pH 4.5. In control experiments, the activity of several lysosomas glycosidases was confirmed using fluorescent substrates. The substrates were 4-methylumbelliferone (4-MU)-conjugated β-D-glucopyranoside (for GCase), α-D-glucopyranoside (for α-glucosidase), α-D-galactopyranoside (for α-Galase) and β-D-galactopyranoside (for β-galactosidase). The liberated 4-methylumbelliferone was measured in the black-well plate with a Perkin Elmer Luminescence Spectrometer (excitation wavelength: 340 nm; emission: 460 nm). No traces of the free polysubstituted 2-oxa-3-oxoindolizidine, which would result from hydrolysis of the glycolipid mimetics, was detected by gas chromatography upon trimethylsilylation, confirming the stability of the compounds to the action of the glycosidases.

[2] = test system: OVA-induced AHR mouse model; test: OVA-induced airway hyperreactivity (AHR) and airway inflammation mouse model; assay type: in vivo; settings: for suppression of OVA-induced airway hyperreactivity (AHR): OVA-induced AHR mouse model, FIG. 7; for suppression of IL-4 mRNA level in lungs / suppression of IL-13 mRNA level in lungs: lung mRNA, FIG. 10
Procedure: For ovalbumin (OVA) challenge, mice were sensitized intraperitoneally (i.p.) with 50 μg of OVA with 2% alhydrogel adjuvant (InvivoGen). Mice were challenged three times with 50 μg of OVA on day 7 post-sensitization, either daily or every other day. Mice were sacrificed the day after the last OVA challenge.
Mice were anesthetized with 100 mg per kg body weight pentobarbital (Sigma-Aldrich), tracheotomised and mechanically ventilated via the FinePointe RC system (Buxco Research Systems, Wilmington, NC). Lung function was assessed by measuring lung resistance and dynamic compliance in response to increasing doses of aerosolized methacholine (1.25-40 mg/mL, Sigma-Aldrich).
Upon exposure of the trachea, the lungs were lavaged twice with 1 mL of PBS supplemented with 2% fetal calf serum (FCS). BALF was pooled and BAL cells were pelleted by centrifugation and fixed onto cytospin slides. The slides were stained with Diff-Quik solution (Polysciences Inc) and BAL differential cell count was performed.
Using the Th2 OVA-induced AHR mouse model, we assessed the capability of selected compounds 14 and 29 in suppressing Th2 inflammation.

[3] = test system: bone marrow-derived macrophages (BMDM); test: Suppression of LPS-induced inflammation (BMDM in vitro); assay type: cell-based; settings: FIG. 2; for suppression of IL-6 / suppression of TNFα: LPS-induced, BMDM; for suppression of IL-6: 50 μM; for suppression of TNFα: 10 and 50 μM
Description: Since macrophage is the major responder to LPS-induced inflammation, we assessed the capability of selected compounds to suppress LPS-induced inflammation in bone marrow-derived macrophages (BMDM).

[4] = test system: ERK and p38 of the MAPK family, JNK and STAT3; test: Signal transduction by multiplex bead array (phosphorylation versus LPS treatment alone); assay type: cell-based; settings: compared to LPS treatment alone, 30 min post-treatment, FIG. 4
Description: FIG. 4. […] Compounds 4 and 14, the representative compounds of the invention, were examined in term of signal transduction to explore how the new compounds exert their suppressive effect, using the multiplex bead array.
Using the multiplex bead array, we examined how the new compounds might exert their suppressive effect in term of signal transduction.

[5] = test system: Splenocytes; test: Suppression of LPS-induced inflammation (splenocytes in vitro); assay type: cell-based, mouse; settings: splenocytes treated concurrently with compound and LPS, FIG. 1
Procedure: FIG. 1. […] Splenocytes were treated concurrently with the compounds of the invention and LPS to assess the suppressive function of compounds on LPS-induced inflammation, with several compounds showing prominent suppressive function.
(§1) The whole spleen was surgically removed from a mouse and mechanically dissociated into a single cell suspension of splenocytes, which were then cultured in the complete RPMI 1640 medium (cRPMI). Human peripheral blood mononuclear cells (PBMCs) from healthy volunteers were collected from whole blood through gradient-centrifugation with Histopaque-1077 (Sigma-Aldrich).
Splenocytes were treated concurrently with the compounds of the invention and LPS to assess the suppressive function of compounds on LPS-induced inflammation.

[6] = test system: B6 mice; test: Adjuvancy function of compounds in vivo (serum IFNγ and IL-4); settings: FIG. 11
Procedure: FIG. 11. […] The adjuvancy capability of the selected compound 29 in vivo was assessed by measuring the serum level of IFNγ and IL-4 induced after injecting them into B6 mice.
Besides assessing the ability of the new compounds to suppress inflammation, we also looked into their function to act as adjuvants, i.e. their ability to promote desirable immunological trends in the development of vaccines. We measured the in vivo adjuvancy capability of selected compounds 29 in inducing IFNγ and IL-4 in B6 mice (FIG. 11).

[7] = test system: B6 mice; test: Suppression of LPS-induced inflammation in vivo; settings: injected twice in a half hour time after LPS-treatment, FIG. 3
Procedure: FIG. 3. […] The in vivo capability of compound 29 in suppressing LPS-induced inflammation in B6 mice was assessed as indicated in the scheme.
To determine the anti-inflammatory function in vivo, we assessed the capability of compound 29 in suppressing LPS-induced inflammation in B6 mice.

[8] = test system: Splenocytes; test: Immune-stimulating function of compounds alone (splenocytes in vitro); assay type: cell-based, mouse; settings: splenocytes treated with compound alone, FIG. 6
Procedure: FIG. 6. […] Splenocytes were treated with the compounds of the invention alone to assess the immune-stimulating function of the compounds.
as §1
Splenocytes were treated with the compounds of the invention alone to assess the immune-stimulating function of the compounds by measuring their ability to promote the secretions of IFN-γ and IL-4.

[9] = bronchoalveolar lavage fluid, FIG. 8

CCCCCCCCCCCCCCCCNS(=O)(=O)N[C@@H]1C(O)[C@@H](O)[C@H](O)C2COC(=O)N21 (stereo partly shown) [Compound 14]
free polysubstituted 2-oxa-3-oxoindolizidine from hydrolysis of the glycolipid mimetic (stability to glycosidases) [1]: No traces | suppression of OVA-induced airway hyperreactivity (AHR) [2]: can suppress AHR onset | suppression of IL-4 mRNA level in lungs [2]: significantly suppressed | suppression of IL-13 mRNA level in lungs [2]: significantly suppressed | suppression of LPS-induced inflammation in BMDM [3]: efficient in suppressing LPS-induced inflammation | suppression of IL-6 [3]: significant suppression | suppression of TNFα [3]: significant suppression | phosphorylation of ERK [4]: significantly reduced | phosphorylation of JNK [4]: but not JNK | phosphorylation of STAT3 [4]: significant reduction | phosphorylation of p38 [4]: significantly reduced | suppression of LPS-induced inflammation [5]: prominent inflammation-suppressing function

CCCCCCCCCCCCNC(=S)N[C@@H]1C(O)[C@@H](O)[C@H](O)C2COC(=O)N21 (stereo partly shown) [Compound 27]
free polysubstituted 2-oxa-3-oxoindolizidine from hydrolysis of the glycolipid mimetic (stability to glycosidases) [1]: No traces | suppression of LPS-induced inflammation [5]: prominent inflammation-suppressing function

CCCCCCCCCCCCCCCCNC(=[Se])N[C@@H]1C(O)[C@@H](O)[C@H](O)C2COC(=O)N21 (stereo partly shown) [Compound 32]
free polysubstituted 2-oxa-3-oxoindolizidine from hydrolysis of the glycolipid mimetic (stability to glycosidases) [1]: No traces

CCCCCCCCNC(=[Se])N[C@@H]1C(O)[C@@H](O)[C@H](O)C2COC(=O)N21 (stereo partly shown) [Compound 25]
free polysubstituted 2-oxa-3-oxoindolizidine from hydrolysis of the glycolipid mimetic (stability to glycosidases) [1]: No traces

CCCCCCCCNS(=O)(=O)N[C@@H]1C(O)[C@@H](O)[C@H](O)C2COC(=O)N21 (stereo partly shown) [Compound 10]
free polysubstituted 2-oxa-3-oxoindolizidine from hydrolysis of the glycolipid mimetic (stability to glycosidases) [1]: No traces

CCCCCCCCCCCCOS(=O)(=O)N[C@@H]1C(O)[C@@H](O)[C@H](O)C2COC(=O)N21 (stereo partly shown) [Compound 18]
free polysubstituted 2-oxa-3-oxoindolizidine from hydrolysis of the glycolipid mimetic (stability to glycosidases) [1]: No traces

CCCCNS(=O)(=O)N[C@@H]1C(O)[C@@H](O)[C@H](O)C2COC(=O)N21 (stereo partly shown) [Compound 8]
free polysubstituted 2-oxa-3-oxoindolizidine from hydrolysis of the glycolipid mimetic (stability to glycosidases) [1]: No traces

CCOP(=O)(N[C@@H]1C(O)[C@@H](O)[C@H](O)C2COC(=O)N21)OCC (stereo partly shown) [Compound 2]
free polysubstituted 2-oxa-3-oxoindolizidine from hydrolysis of the glycolipid mimetic (stability to glycosidases) [1]: No traces

CCCCCCCCCCCCNS(=O)(=O)N[C@@H]1C(O)[C@@H](O)[C@H](O)C2COC(=O)N21 (stereo partly shown) [Compound 12]
free polysubstituted 2-oxa-3-oxoindolizidine from hydrolysis of the glycolipid mimetic (stability to glycosidases) [1]: No traces

CCCCCCCCS(=O)(=O)N[C@@H]1C(O)[C@@H](O)[C@H](O)C2COC(=O)N21 (stereo partly shown) [Compound 22]
free polysubstituted 2-oxa-3-oxoindolizidine from hydrolysis of the glycolipid mimetic (stability to glycosidases) [1]: No traces

CCCCCCCCCCCCCCCCOS(=O)(=O)N[C@@H]1C(O)[C@@H](O)[C@H](O)C2COC(=O)N21 (stereo partly shown) [Compound 20]
free polysubstituted 2-oxa-3-oxoindolizidine from hydrolysis of the glycolipid mimetic (stability to glycosidases) [1]: No traces

CCCCCCCCOP(=O)(N[C@@H]1C(O)[C@@H](O)[C@H](O)C2COC(=O)N21)OCCCCCCCC (stereo partly shown) [Compound 4]
free polysubstituted 2-oxa-3-oxoindolizidine from hydrolysis of the glycolipid mimetic (stability to glycosidases) [1]: No traces | suppression of LPS-induced inflammation in BMDM [3]: efficient in suppressing LPS-induced inflammation | suppression of IL-6 [3]: significant suppression | suppression of TNFα [3]: significant suppression | phosphorylation of ERK [4]: significantly reduced | phosphorylation of JNK [4]: but not JNK | phosphorylation of p38 [4]: significantly reduced | suppression of LPS-induced inflammation [5]: prominent inflammation-suppressing function

CCCCCCCCCCCCOP(=O)(N[C@@H]1C(O)[C@@H](O)[C@H](O)C2COC(=O)N21)OCCCCCCCCCCCC (stereo partly shown) [Compound 6]
free polysubstituted 2-oxa-3-oxoindolizidine from hydrolysis of the glycolipid mimetic (stability to glycosidases) [1]: No traces | suppression of LPS-induced inflammation [5]: prominent inflammation-suppressing function

CCCCCCCCOS(=O)(=O)N[C@@H]1C(O)[C@@H](O)[C@H](O)C2COC(=O)N21 (stereo partly shown) [Compound 16]
free polysubstituted 2-oxa-3-oxoindolizidine from hydrolysis of the glycolipid mimetic (stability to glycosidases) [1]: No traces

CCCCCCCCCCCCOC(=S)N[C@@H]1C(O)[C@@H](O)[C@H](O)C2COC(=O)N21 (stereo partly shown) [Compound 34]
free polysubstituted 2-oxa-3-oxoindolizidine from hydrolysis of the glycolipid mimetic (stability to glycosidases) [1]: No traces

CCCCCCCCCCCCNC(=[Se])N[C@@H]1C(O)[C@@H](O)[C@H](O)C2COC(=O)N21 (stereo partly shown) [Compound 29]
free polysubstituted 2-oxa-3-oxoindolizidine from hydrolysis of the glycolipid mimetic (stability to glycosidases) [1]: No traces | suppression of OVA-induced airway hyperreactivity (AHR) [2]: suppress AHR significantly | suppression of IL-4 level in BALF [2, 9]: suppress both IL-13 and IL-4 levels significantly | suppression of IL-13 level in BALF [2, 9]: suppress both IL-13 and IL-4 levels significantly | suppression of IL-4 mRNA level in lungs [2]: significantly suppressed | suppression of IL-13 mRNA level in lungs [2]: significantly suppress; also recorded: significantly suppressed | suppression of IL-13 protein level in lungs ([2]; lung protein, FIG. 9): significantly suppress; also recorded: significant suppression | induction of serum IFNγ ([6]; 2 hours after injection): significant capability | induction of serum IL-4 ([6]; 2 hours after injection): significant capability | serum IFNγ level ([6]; 18 hours after injection): significant detectable level | suppression of LPS-induced serum TNFα [7]: significantly suppressed; also recorded: significantly suppressing | suppression of LPS-induced inflammation [5]: prominent inflammation-suppressing function | IFNγ secretion [8]: effective in promoting; also recorded: induced significant IFNγ secretion | IL-4 secretion [8]: but not IL-4
